Data as given in ChEMBL document CHEMBL4024706 (Eur J Med Chem, 2017).

Tests used:
[1] = target: Serine/threonine-protein kinase PAK 5 (Homo sapiens) (UniProt Q9P286); test: Inhibition of wild-type human partial length PAK7 (Y400 to H719 residues) expressed in bacterial expression system assessed as residual activity at 1 uM by Kinomescan method relative to control
[2] = target: Atypical kinase COQ8B, mitochondrial (Homo sapiens) (UniProt Q96D53); test: Inhibition of wild-type human full length ADCK4 (M1 to S544 residues) expressed in bacterial expression system assessed as residual activity at 1 uM by Kinomescan method relative to control
[3] = AUC (0 to t) in Sprague-Dawley rat at 10 mg/kg, po by LC-MS/MS method; assay type: ADME, organism-based; details: in vivo
[4] = target: Serine/threonine-protein kinase PLK2 (Homo sapiens) (UniProt Q9NYY3); test: Inhibition of wild-type human partial length PLK2 (H58 to F354 residues) expressed in mammalian expression system assessed as residual activity at 1 uM by Kinomescan method relative to control
PBMC = test: Cytotoxicity against PBMC (unknwon origin); assay type: cell-based
[5] = AUC (0 to infinity) in Sprague-Dawley rat at 10 mg/kg, po by LC-MS/MS method; assay type: ADME, organism-based; set-up: dose 10 mg/kg, route oral, time infinity; details: in vivo
[6] = target: Serine/threonine-protein kinase TAO1 (Homo sapiens) (UniProt Q7L7X3); test: Inhibition of wild-type human partial length TAOK1 (M1 to A320 residues) expressed in mammalian expression system assessed as residual activity at 1 uM by Kinomescan method relative to control
Sequence of Serine/threonine-protein kinase TAO1 (Homo sapiens) (Q7L7X3 whole entry, the tested form may be a part): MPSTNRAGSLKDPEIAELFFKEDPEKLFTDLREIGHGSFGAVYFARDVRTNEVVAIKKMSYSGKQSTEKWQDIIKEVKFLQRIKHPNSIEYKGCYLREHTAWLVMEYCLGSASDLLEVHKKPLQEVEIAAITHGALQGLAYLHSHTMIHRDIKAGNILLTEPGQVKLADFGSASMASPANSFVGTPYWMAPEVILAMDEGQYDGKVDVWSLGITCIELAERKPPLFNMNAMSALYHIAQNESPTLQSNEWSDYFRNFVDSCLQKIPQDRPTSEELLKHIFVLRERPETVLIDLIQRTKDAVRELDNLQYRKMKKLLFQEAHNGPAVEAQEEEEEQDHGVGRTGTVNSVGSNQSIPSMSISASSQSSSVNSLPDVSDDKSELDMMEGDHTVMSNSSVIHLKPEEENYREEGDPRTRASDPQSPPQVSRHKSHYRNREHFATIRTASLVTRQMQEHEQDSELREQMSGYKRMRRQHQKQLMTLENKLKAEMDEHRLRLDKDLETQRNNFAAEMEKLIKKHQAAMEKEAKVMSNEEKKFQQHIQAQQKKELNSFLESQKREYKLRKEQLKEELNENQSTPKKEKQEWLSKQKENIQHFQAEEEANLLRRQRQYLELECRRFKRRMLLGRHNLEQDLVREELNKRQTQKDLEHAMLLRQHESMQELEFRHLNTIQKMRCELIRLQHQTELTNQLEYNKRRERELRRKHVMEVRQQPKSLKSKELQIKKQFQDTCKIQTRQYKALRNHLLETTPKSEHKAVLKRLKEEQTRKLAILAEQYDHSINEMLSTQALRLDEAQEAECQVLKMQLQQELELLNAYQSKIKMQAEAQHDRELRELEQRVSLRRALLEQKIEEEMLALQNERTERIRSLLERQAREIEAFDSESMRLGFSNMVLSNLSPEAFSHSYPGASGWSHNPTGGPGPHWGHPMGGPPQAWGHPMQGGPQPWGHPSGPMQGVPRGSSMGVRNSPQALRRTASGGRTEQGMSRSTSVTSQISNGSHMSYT

[7] = target: Mitogen-activated protein kinase kinase kinase 3 (Homo sapiens) (UniProt Q99759); test: Inhibition of wild-type human partial length MAP3K3 (E320 to Y626 residues) expressed in mammalian expression system assessed as residual activity at 1 uM by Kinomescan method relative to control
[8] = target: Serine/threonine-protein kinase N2 (Homo sapiens) (UniProt Q16513); test: Inhibition of wild-type human partial length PKN2 (E634 to C984 residues) expressed in bacterial expression system assessed as residual activity at 1 uM by Kinomescan method relative to control
[9] = target: Rhodopsin kinase GRK1 (Homo sapiens) (UniProt Q15835); test: Inhibition of wild-type human full length GRK1 (M1 to S563 residues) expressed in mammalian expression system assessed as residual activity at 1 uM by Kinomescan method relative to control
Sequence of Rhodopsin kinase GRK1 (Homo sapiens) (Q15835 whole entry, the tested form may be a part): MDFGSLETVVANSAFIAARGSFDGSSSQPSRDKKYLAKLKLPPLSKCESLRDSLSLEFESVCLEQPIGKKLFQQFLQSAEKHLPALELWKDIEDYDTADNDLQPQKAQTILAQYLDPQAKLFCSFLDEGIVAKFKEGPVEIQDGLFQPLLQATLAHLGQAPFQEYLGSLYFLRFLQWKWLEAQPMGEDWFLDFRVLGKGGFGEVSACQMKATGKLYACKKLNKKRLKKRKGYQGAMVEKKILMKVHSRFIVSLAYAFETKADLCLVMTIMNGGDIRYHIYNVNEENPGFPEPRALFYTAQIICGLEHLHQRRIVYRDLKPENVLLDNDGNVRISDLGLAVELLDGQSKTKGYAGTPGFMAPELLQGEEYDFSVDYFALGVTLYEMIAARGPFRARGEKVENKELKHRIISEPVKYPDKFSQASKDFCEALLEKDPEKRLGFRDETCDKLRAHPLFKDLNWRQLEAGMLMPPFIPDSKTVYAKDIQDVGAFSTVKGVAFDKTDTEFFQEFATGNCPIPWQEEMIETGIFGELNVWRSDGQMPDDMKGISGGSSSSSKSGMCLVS

[10] = target: Mitogen-activated protein kinase kinase kinase 11 (Homo sapiens) (UniProt Q16584); test: Inhibition of wild-type human partial length MLK3 (I77 to W399 residues) expressed in bacterial expression system assessed as residual activity at 1 uM by Kinomescan method relative to control
[11] = target: Macrophage colony-stimulating factor 1 receptor (Homo sapiens) (UniProt P07333); test: Inhibition of wild-type human partial length CSF1R (I564 to S939 residues) expressed in bacterial expression system assessed as residual activity at 1 uM by Kinomescan method relative to control
[12] = target: Serine/threonine-protein kinase TNNI3K (Homo sapiens) (UniProt Q59H18); test: Inhibition of wild-type human full length TNNI3K (M1 to S835 residues) expressed in bacterial expression system assessed as residual activity at 1 uM by Kinomescan method relative to control
Sequence of Serine/threonine-protein kinase TNNI3K (Homo sapiens) (Q59H18 whole entry, the tested form may be a part): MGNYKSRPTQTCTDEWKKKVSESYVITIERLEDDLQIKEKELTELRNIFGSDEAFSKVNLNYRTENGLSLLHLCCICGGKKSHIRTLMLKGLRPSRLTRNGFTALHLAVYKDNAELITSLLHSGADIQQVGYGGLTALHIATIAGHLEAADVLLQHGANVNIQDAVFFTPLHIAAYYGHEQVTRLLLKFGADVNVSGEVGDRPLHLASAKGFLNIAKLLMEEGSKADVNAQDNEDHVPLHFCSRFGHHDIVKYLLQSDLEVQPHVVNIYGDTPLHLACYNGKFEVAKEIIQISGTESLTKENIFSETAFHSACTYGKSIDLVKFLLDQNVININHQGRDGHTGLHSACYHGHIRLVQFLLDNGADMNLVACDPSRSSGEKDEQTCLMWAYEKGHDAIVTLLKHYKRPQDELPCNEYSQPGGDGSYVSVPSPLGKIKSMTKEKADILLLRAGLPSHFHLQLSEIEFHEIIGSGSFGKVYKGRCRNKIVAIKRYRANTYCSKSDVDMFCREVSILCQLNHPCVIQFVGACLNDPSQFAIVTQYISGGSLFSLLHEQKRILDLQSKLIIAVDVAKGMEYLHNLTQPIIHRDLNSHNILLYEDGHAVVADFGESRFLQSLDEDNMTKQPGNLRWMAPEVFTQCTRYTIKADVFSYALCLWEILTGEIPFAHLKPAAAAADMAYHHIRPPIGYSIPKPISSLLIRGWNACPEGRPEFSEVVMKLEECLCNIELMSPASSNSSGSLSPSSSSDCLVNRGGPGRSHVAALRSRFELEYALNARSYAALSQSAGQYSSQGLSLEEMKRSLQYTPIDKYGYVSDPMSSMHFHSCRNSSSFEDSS

[13] = target: Serine/threonine-protein kinase DCLK1 (Homo sapiens) (UniProt O15075); test: Inhibition of wild-type human partial length DCAMKL1 (L270 to A662 residues) expressed in mammalian expression system assessed as residual activity at 1 uM by Kinomescan method relative to control
[14] = system: Epidermal growth factor receptor (Homo sapiens), P00533 [UNDEFINED MUTATION]; test: Inhibition of human partial length EGFR L747-S752del/P753S mutant expressed in bacterial expression system assessed as residual activity at 1 uM by Kinomescan method relative to control
[15] = target: Cyclin-dependent kinase 2 (Homo sapiens) (UniProt P24941); test: Inhibition of wild-type human full length CDK2 (M1 to L298 residues) expressed in bacterial expression system assessed as residual activity at 1 uM by Kinomescan method relative to control
[16] = system: Phosphatidylinositol 4,5-bisphosphate 3-kinase catalytic subunit alpha isoform (Homo sapiens), P42336 [E545A]; test: Inhibition of human partial length PIK3CA E545A mutant (R108 to N1068 residues) expressed in mammalian expression system assessed as residual activity at 1 uM by Kinomescan method relative to control
[17] = target: LIM domain kinase 1 (Homo sapiens) (UniProt P53667); test: Inhibition of wild-type human full length LIMK1 (M1 to D647 residues) expressed in bacterial expression system assessed as residual activity at 1 uM by Kinomescan method relative to control
[18] = system: Mast/stem cell growth factor receptor Kit (Homo sapiens), P10721 [A829P]; test: Inhibition of human partial length KIT A829P mutant (I571 to D952 residues) expressed in mammalian expression system assessed as residual activity at 1 uM by Kinomescan method relative to control
[19] = target: Inhibitor of nuclear factor kappa-B kinase subunit epsilon (Homo sapiens) (UniProt Q14164); test: Inhibition of wild-type human full length IKK-epsilon (M1 to V716 residues) expressed in mammalian expression system assessed as residual activity at 1 uM by Kinomescan method relative to control
[20] = target: Serine/threonine-protein kinase D3 (Homo sapiens) (UniProt O94806); test: Inhibition of wild-type human partial length PRKD3 (S543 to E863 residues) expressed in bacterial expression system assessed as residual activity at 1 uM by Kinomescan method relative to control
Sequence of Serine/threonine-protein kinase D3 (Homo sapiens) (O94806 whole entry, the tested form may be a part): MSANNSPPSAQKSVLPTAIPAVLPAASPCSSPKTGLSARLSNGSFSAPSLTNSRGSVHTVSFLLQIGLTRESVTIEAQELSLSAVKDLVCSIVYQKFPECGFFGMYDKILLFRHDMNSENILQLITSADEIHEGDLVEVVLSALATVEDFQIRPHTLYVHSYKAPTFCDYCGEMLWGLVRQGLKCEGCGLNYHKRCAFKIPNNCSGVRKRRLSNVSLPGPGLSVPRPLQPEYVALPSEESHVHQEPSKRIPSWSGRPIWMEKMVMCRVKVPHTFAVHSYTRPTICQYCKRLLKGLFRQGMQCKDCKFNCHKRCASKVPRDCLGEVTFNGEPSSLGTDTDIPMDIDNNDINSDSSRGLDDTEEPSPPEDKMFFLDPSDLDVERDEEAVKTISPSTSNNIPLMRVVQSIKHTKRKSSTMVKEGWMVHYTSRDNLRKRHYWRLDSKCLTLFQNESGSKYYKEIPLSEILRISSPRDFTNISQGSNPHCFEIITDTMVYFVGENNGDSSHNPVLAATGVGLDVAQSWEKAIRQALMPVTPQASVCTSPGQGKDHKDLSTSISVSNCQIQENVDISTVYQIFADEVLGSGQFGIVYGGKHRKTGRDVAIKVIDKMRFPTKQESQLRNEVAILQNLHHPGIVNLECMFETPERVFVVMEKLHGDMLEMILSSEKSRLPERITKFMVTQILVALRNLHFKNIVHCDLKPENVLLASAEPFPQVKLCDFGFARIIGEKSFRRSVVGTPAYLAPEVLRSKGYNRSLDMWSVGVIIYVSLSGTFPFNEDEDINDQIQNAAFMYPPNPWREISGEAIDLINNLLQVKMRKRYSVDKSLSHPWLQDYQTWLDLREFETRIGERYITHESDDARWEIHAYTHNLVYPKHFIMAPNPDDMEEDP

[21] = target: Activin receptor type-1B (Homo sapiens) (UniProt P36896); test: Inhibition of wild-type human ACVR1B (S187 to I505 residues) expressed in bacterial expression system assessed as residual activity at 1 uM by Kinomescan method relative to control
Sequence of Activin receptor type-1B (Homo sapiens) (P36896 whole entry, the tested form may be a part): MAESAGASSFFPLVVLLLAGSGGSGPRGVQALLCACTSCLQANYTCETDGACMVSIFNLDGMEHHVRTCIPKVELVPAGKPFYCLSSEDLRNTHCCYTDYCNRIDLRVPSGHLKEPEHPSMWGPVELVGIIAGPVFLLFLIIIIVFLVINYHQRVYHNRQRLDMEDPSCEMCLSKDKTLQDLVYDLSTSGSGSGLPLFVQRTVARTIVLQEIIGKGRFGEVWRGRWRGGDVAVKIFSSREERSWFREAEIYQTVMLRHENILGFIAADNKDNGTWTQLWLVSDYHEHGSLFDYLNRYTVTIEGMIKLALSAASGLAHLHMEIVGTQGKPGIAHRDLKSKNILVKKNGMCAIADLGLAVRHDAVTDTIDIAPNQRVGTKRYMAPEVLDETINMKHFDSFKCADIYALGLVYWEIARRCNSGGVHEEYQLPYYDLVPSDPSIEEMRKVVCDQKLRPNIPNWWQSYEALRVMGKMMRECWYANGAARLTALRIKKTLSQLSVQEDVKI

[22] = target: Cyclin-dependent kinase 14 (Homo sapiens) (UniProt O94921); test: Inhibition of wild-type human full length PFTK1 (M1 to H451 residues) expressed in bacterial expression system assessed as residual activity at 1 uM by Kinomescan method relative to control
Sequence of Cyclin-dependent kinase 14 (Homo sapiens) (O94921 whole entry, the tested form may be a part): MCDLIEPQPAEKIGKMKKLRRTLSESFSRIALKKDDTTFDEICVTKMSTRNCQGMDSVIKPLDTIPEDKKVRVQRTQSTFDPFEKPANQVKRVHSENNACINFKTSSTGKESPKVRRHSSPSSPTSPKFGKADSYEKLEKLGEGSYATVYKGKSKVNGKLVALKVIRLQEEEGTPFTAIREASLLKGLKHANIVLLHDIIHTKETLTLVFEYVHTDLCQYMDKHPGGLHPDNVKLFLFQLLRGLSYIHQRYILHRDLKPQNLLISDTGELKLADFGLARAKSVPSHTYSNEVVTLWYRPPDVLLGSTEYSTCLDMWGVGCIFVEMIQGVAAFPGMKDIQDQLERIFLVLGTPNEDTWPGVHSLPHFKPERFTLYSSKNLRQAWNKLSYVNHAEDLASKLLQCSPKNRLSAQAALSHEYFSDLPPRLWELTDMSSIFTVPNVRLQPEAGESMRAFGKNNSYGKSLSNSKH

[23] = target: Mast/stem cell growth factor receptor Kit (Homo sapiens) (UniProt P10721); test: Inhibition of wild-type human partial length autoinhibited KIT (Y545 to D952 residues) expressed in mammalian expression system assessed as residual activity at 1 uM by Kinomescan method relative to control
[24] = target: Mitogen-activated protein kinase 4 (Homo sapiens) (UniProt P31152); test: Inhibition of wild-type human partial length ERK4 (M1 to L365 residues) expressed in bacterial expression system assessed as residual activity at 1 uM by Kinomescan method relative to control
[25] = target: Serine/threonine-protein kinase Nek11 (Homo sapiens) (UniProt Q8NG66); test: Inhibition of wild-type human partial length NEK11 (M1 to E313 residues) expressed in mammalian expression system assessed as residual activity at 1 uM by Kinomescan method relative to control
Sequence of Serine/threonine-protein kinase Nek11 (Homo sapiens) (Q8NG66 whole entry, the tested form may be a part): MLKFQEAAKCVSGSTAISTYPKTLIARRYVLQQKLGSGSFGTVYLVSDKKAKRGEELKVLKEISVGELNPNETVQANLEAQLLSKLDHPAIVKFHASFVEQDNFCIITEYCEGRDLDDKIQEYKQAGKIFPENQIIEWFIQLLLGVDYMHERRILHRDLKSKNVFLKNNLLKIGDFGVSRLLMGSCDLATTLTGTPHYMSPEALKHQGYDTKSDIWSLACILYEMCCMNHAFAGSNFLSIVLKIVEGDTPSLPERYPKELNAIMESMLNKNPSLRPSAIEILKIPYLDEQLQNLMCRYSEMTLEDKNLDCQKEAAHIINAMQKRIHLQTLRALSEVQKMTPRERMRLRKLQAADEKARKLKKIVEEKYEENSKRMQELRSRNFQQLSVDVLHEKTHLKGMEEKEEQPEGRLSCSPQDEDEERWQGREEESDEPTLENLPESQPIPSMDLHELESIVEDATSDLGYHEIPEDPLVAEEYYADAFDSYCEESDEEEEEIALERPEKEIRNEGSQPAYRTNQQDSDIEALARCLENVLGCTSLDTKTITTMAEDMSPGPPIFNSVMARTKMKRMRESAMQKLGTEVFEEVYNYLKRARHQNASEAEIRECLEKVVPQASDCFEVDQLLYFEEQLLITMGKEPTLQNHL

## C=CC(=O)Nc1cc(Nc2cc(-c3cccc(NC(=O)c4ccc(C(C)(C)C)cc4)c3C)cn(C)c2=O)ccc1C(=O)N1CCOCC1
[1]
  Activity: 98%
[2]
  Activity: 100%
[3]
  AUC(0-t): 22 ng·h/mL
[4]
  Activity: 100%
PBMC
  Activity: Non-Toxic
[5]
  AUC(0-inf): 34.5 ng·h/mL
[6]
  Activity: 100%
[7]
  Activity: 100%
[8]
  Activity: 93%
[9]
  Activity: 100%
[10]
  Activity: 100%
[11]
  Activity: 86%
[12]
  Activity: 37%
[13]
  Activity: 95%
[14]
  Activity: 88%
[15]
  Activity: 99%
[16]
  Activity: 96%
[17]
  Activity: 86%
[18]
  Activity: 93%
[19]
  Activity: 100%
[20]
  Activity: 100%
[21]
  Activity: 100%
[22]
  Activity: 93%
[23]
  Activity: 100%
[24]
  Activity: 95%
[25]
  Activity: 97%
